Results reported in publication PMC8776094, “Reactive Oxygen Species Production Is Responsible for Antineoplastic Activity of Osmium, Ruthenium, Iridium and Rhodium Half-Sandwich Type Complexes with Bidentate Glycosyl Heterocyclic Ligands in Various Cancer Cell Models” (International Journal of Molecular Sciences, 2022).
“Also recorded” adds a separate entry of the source.

Columns and labels:
Type in all cases: cell-based
[1] = system: A2780 ovarian cancer cells; experiment: MTT reduction assay, 4 h, rapid toxicity, A2780; conditions: 4 h treatment; for Maximum Inhibition (%) A2780: MTT assay, tested 0.001694-33.3333 µM, ND = not detected or cannot be calculated
Procedure: (§1) The compounds were tested between 0.001694 and 33.3333 µM, using a 4-hour-long MTT test to assess rapid toxicity and a 48-hour-long SRB assay to assess the long-term effects of the inhibition of proliferation (cytostasis). The MTT assay assesses the activity of mitochondrial complex I and detects rapid, direct toxicity, as well as indicating apoptosis and necrosis. The SRB assay measures the total protein content that is proportional to cell numbers; therefore, the assay can detect changes in cell numbers and can thus be used as a readout for cell proliferation. The SRB assay was performed after 48 h of treatment (with the exception of L428 cells, which were tested for 96 h due to their slower proliferation rate). In this setting, the SRB assay informs us of long-term changes to cell proliferation. We assessed the maximal inhibition within that concentration range, and descriptive statistics were performed. We performed a one-way ANOVA, followed by the Kruskal–Wallis test, regardless of the normal or non-normal distribution of the data. Due to the large number of significance values, the results of the significance calculations are provided in an Excel spreadsheet at https://figshare.com/s/28d14597d5041f08eb08 (accessed on 6 January 2022), among other primary data of the study. Where possible, nonlinear regression was performed on the curves to determine the IC50 values ((inhibitor) vs. response—variable slope (four parameters) method with Graphpad v8.0.1). […] In Table 5, we added the IC50 values that we determined for a set of 4 active ruthenium half-sandwich complexes we identified previously, to be used in subsequent structure-activity relationship (SAR) analyses.
(§2) A2780 cells were cultured in RMPI 1640 medium, supplemented with 10% fetal calf serum, 2 mM glutamine, and 1% penicillin-streptomycin.
(§3) The MTT reduction assay measures the activity of mitochondrial complex I and can be used to detect apoptosis and necrosis. The assay was performed similarly to the method used in [72]. Briefly, cells were plated in 96-well plates the day before the assay. Cells were treated with the compounds for 4 h, then MTT was added at 0.5 mg/mL final concentration and the cells were incubated at 37 °C in a cell incubator. The culture media were removed and the reduced MTT dye was dissolved in dimethyl-sulfoxide (DMSO) and plates were measured in a plate photometer (Thermo Scientific Multiscan GO spectrophotometer, Waltham, MA, USA) at 540 nm. On each plate, wells were designed to contain untreated/vehicle-treated cells. In the calculations, the readings for these wells were considered as 1 and all readings were expressed relative to these values.

[2] = system: ID8 ovarian cancer cell line; experiment: MTT reduction assay, 4 h, rapid toxicity, ID8; conditions: 4 h treatment; for Maximum Inhibition (%) ID8: MTT assay, ND = not detected or cannot be calculated
Procedure: as §1
ID8 cells were cultured in a high-glucose DMEM (4.5 g/L glucose) medium, supplemented with 4% fetal calf serum, 2 mM glutamine, 1% penicillin-streptomycin, and 1% ITS supplement (I3146).
as §3

[3] = system: A2780 ovarian cancer cells; experiment: SRB assay, 48 h, cytostasis, A2780; conditions: for cytostatic activity on A2780 cells in SRB assay (in words): 48 h treatment; for IC50 / A2780 Max. Inh. (%): SRB assay, 48 h; for A2780 Max. Inh. (%): ND = not detected
Procedure: as §1, §2
(§4) The assay was performed similarly to the method used in [73]. Cells were seeded in 96-well plates the day before the assay. Cells were treated with the compounds for 48 h, with the exception of L428, where 96 h of treatment was applied. Cells were fixed with 10% trichloroacetic acid (TCA). Fixed cells were washed in distilled water 3 times, followed by staining with SRB (0.4 m/V% dissolved in 1% acetic acid) for 10 min. The stained cells were washed in 1% acetic acid 5 times; the acetic acid was removed, and the cells were left to dry. Protein-bound SRB was released by adding 100 µL 10 mM Tris base. Plates were measured in a plate photometer (Thermo Scientific Multiscan GO spectrophotometer, Waltham, MA, USA) at 540 nm. On each plate, wells were designed to contain untreated cells. In calculations, the readings for these wells were considered as 1 and all readings were expressed relative to these values.
(§5) Statistical analysis was performed using the 8.0.1 version of Graphpad Prism. Values were tested for normal distribution, using the d’Agostino and Pearson normality test. When necessary, values were log-normalized or were normalized using the Box-Cox normalization method or using a two-step transformation, as indicated in the figure captions. Nonlinear regression was performed using the built-in “[Inhibitor] vs. Response—Variable slope (four parameters), least-square fit” utility of Graphpad, yielding the IC50 and Hill slope values.

[4] = system: Saos, an osteosarcoma cell line; experiment: SRB assay, 48 h, cytostasis, Saos; conditions: for IC50 / Saos Max. Inh. (%): SRB assay; for Saos Max. Inh. (%): ND = not detected
Source text: We turned next to assessing whether the cytostatic activity of Os-3, Os-4, Os-5, Os-6 and Ir-6 complexes is specific for ovarian cancer cell lines or if they may be active on other cell lines. To that end, we tested the complexes on another carcinoma cell line (Capan2, a pancreatic adenocarcinoma cell line), on a sarcoma cell line (Saos, an osteosarcoma cell line) and on a lymphoma cell line (L428, a Hodgkin’s lymphoma cell line).
Saos cells were maintained in DMEM (4.5 g/L glucose) medium, supplemented with 10% fetal calf serum, 2 mM glutamine, and 1% penicillin-streptomycin.
as §4, §5
Here, 1.5 × 10^3 Capan2, 3 × 10^3 Saos cells and 10^4 L428 cells were plated onto 96-well plates. Capan2 and Saos cells were treated with the compounds in the concentrations indicated for 48 h for an SRB assay. L428 cells were treated with the compounds in the concentrations indicated for 96 h, then cells were counted using conventional microscopy and a Burker chamber. Data are represented as average ± SD, from three biological replicates; individual assays were performed in duplicate. Values were normalized for vehicle-treated cells; the absorbance for vehicle-treated cells is equal to 1. A one-way ANOVA, followed by a Kruskal–Wallis test, was performed individually for each compound. The results of the statistical analysis are presented in an Excel spreadsheet at https://figshare.com/s/28d14597d5041f08eb08 (accessed on 6 January 2022). Nonlinear regression was performed on the data.

Compound | toxicity on A2780 cells in short-term MTT assay (in words) [1] | Maximum Inhibition (%) A2780 [1] | cytotoxicity on ID8 cells, MTT assay (in words) [2] | Maximum Inhibition (%) ID8 [2] | cytostatic activity on A2780 cells in SRB assay (in words) [3] | IC50 [3] | A2780 Max. Inh. (%) [3] | cytostatic activity on Saos cells (in words) [4] | IC50 [4] | Saos Max. Inh. (%) [4]
Cc1c(C)c(C)[c-](C)c1C.F[P-](F)(F)(F)(F)F.O=C(OCC1OC(n2cc(-c3ccccn3)nn2)C(OC(=O)c2ccccc2)C(OC(=O)c2ccccc2)C1OC(=O)c1ccccc1)c1ccccc1.[Cl][Ir+2] (mixture of isomers) [Ir-6] | exerted toxicity in higher concentrations | 43.07% | mild cytotoxicity | 62.71% | pronounced; also recorded: displayed cytostatic activity | 1640 nM | 100% | active on all cell lines | 2710 nM | 100%
Cc1ccc(C(C)C)cc1.F[P-](F)(F)(F)(F)F.O=C(OCC1OC(c2nnc(-c3ccccn3)o2)C(OC(=O)c2ccccc2)C(OC(=O)c2ccccc2)C1OC(=O)c1ccccc1)c1ccccc1.[Cl][Os+] (mixture of isomers) [Os-3] |  | 37.42% | cytotoxic capacity to a greater extent than on A2780 cells | 35.24% | exerted cytostatic activity | 2520 nM | 100% | active on all cell lines |  | 65%
Cc1ccc(C(C)C)cc1.F[P-](F)(F)(F)(F)F.O=C(OCC1OC(c2nnc(-c3ccccn3)o2)C(OC(=O)c2ccccc2)C(OC(=O)c2ccccc2)C1OC(=O)c1ccccc1)c1ccccc1.[Cl][Os+] (mixture of isomers) [Os-4] |  | 26.67% |  | 22.91% | exerted cytostatic activity | 3230 nM | 100% | active on all cell lines | 8780 nM | 100%
Cc1ccc(C(C)C)cc1.F[P-](F)(F)(F)(F)F.O=C(OC1COC(c2nnc(-c3ccccn3)o2)C(OC(=O)c2ccccc2)C1OC(=O)c1ccccc1)c1ccccc1.[Cl][Os+] (mixture of isomers) [Os-5] |  | 31.38% | cytotoxic capacity to a greater extent than on A2780 cells | 59.51% | exerted cytostatic activity | 2810 nM | 100% | active on all cell lines | 8520 nM | 100%
Cc1ccc(C(C)C)cc1.F[P-](F)(F)(F)(F)F.O=C(OCC1OC(n2cc(-c3ccccn3)nn2)C(OC(=O)c2ccccc2)C(OC(=O)c2ccccc2)C1OC(=O)c1ccccc1)c1ccccc1.[Cl][Os+] (mixture of isomers) [Os-6] |  | 21.38% | cytotoxic capacity to a greater extent than on A2780 cells | 64.44% | exerted cytostatic activity | 700 nM | 100% | active on all cell lines | 3600 nM | 100%
